According to the COVID Moonshot data (paper PMC7615835):
Where “and” joins values, the source holds several entries; their conditions need not be identical. Equal values may be shown once.

What was measured:
[1] = target: SARS-CoV-2 Main Protease (SARS-CoV-2) (UniProt P0DTD1)
[2] = in vivo, iv
[3] = rat; plasma
[4] = human; plasma
[5] = not given; remark: listed apart in the source
[6] = dog; liver_microsomes
[7] = rat; in vivo; po; 10.0 mg/kg
[8] = human; liver_microsomes
[9] = pampa
[10] = not given; remark: listed apart in the source
[11] = target: PSP (Eurofins): hr ERalpha (Binding) (AC50) (UniProt P03372)
Sequence of UniProt P03372 (P03372 whole entry, looked up): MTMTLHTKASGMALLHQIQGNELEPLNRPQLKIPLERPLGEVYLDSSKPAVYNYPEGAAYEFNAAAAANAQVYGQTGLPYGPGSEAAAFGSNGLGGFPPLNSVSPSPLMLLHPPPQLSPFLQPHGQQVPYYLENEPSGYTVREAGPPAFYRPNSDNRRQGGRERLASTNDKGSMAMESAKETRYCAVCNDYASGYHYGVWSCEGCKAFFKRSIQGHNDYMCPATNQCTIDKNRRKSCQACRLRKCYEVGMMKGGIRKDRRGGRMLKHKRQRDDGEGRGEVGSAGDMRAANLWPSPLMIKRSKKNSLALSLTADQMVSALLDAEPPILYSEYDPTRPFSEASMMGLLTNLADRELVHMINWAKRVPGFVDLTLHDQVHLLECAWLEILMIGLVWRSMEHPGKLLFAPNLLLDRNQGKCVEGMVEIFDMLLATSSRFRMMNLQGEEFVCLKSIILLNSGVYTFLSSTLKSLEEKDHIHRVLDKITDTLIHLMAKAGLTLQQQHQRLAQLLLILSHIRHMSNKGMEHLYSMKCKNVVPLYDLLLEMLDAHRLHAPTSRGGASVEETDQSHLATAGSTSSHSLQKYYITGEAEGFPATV

Structure (SMILES): O=C(Nc1cncc2ccccc12)C(NC(=O)[C@@H]1CCCO1)c1cccc(Cl)c1 (stereo in doubt)
- CC50 (a549): > 9.99 µM
- IC50 [1]: 2.29 µM

Structure (SMILES): O=C(Nc1cnccc1C1CC1)C1CCNc2cc(Cl)c(Cl)cc21 (configuration not stated)
- AUC(0-inf) ([2]; rat, 0.5 mg/kg): 144 ng·h/mL and 96.1 ng·h/mL
- AUC(0-t) ([2]; rat, 0.5 mg/kg): 142 ng·h/mL and 94.2 ng·h/mL
- C0 ([2]; rat, 0.5 mg/kg): 341 ng/mL and 180 ng/mL
- MRT inf ([2]; rat, 0.5 mg/kg): 46.2 min and 45.9 min
- MRT last ([2]; rat, 0.5 mg/kg): 40.6 min and 41 min
- Vd ([2]; rat, 0.5 mg/kg): 2.65 L/kg and 4.01 L/kg
- clearance ([2]; rat, 0.5 mg/kg): 57.7 mL/min/kg and 86.8 mL/min/kg
- half-life ([2]; rat, 0.5 mg/kg): 49.4 min and 48.2 min
- CC50 (a549): > 9.99 µM
- CC50 (mda-md-435): > 9.99 µM

Structure (SMILES): O=C(Nc1cncc2ccccc12)C1CCS(=O)(=O)c2ccc(Cl)cc21 (configuration not stated)
- fraction unbound [3]: 0.2
- recovery [3]: 98%
- fraction unbound [4]: 0.106 and 0.125
- recovery [4]: 96.9%
- logD [5]: 2
- half-life [6]: 69 min
- AUC(0-inf) ([2]; mouse, 0.5 mg/kg): 192 ng·h/mL and 207 ng·h/mL
- AUC(0-t) ([2]; mouse, 0.5 mg/kg): 190 ng·h/mL and 204 ng·h/mL
- C0 ([2]; mouse, 0.5 mg/kg): 460 ng/mL and 586 ng/mL
- MRT inf ([2]; mouse, 0.5 mg/kg): 26.5 min and 25.2 min
- MRT last ([2]; mouse, 0.5 mg/kg): 25.1 min and 23.6 min
- Vd ([2]; mouse, 0.5 mg/kg): 1.09 L/kg and 0.972 L/kg
- clearance ([2]; mouse, 0.5 mg/kg): 41.3 mL/min/kg and 38.6 mL/min/kg
- half-life ([2]; mouse, 0.5 mg/kg): 18.4 min and 19.9 min
- AUC(0-inf) ([2]; rat, 2.0 mg/kg): 2890 ng·h/mL
- AUC(0-t) ([2]; rat, 2.0 mg/kg): 2850 ng·h/mL and 2840 ng·h/mL
- C0 ([2]; rat, 2.0 mg/kg): 1400 ng/mL and 1460 ng/mL
- MRT inf ([2]; rat, 2.0 mg/kg): 112 min and 98.4 min
- MRT last ([2]; rat, 2.0 mg/kg): 92.4 min and 101 min
- Vd ([2]; rat, 2.0 mg/kg): 1.13 L/kg and 1.29 L/kg
- clearance ([2]; rat, 2.0 mg/kg): 11.5 mL/min/kg and 11.6 mL/min/kg
- half-life ([2]; rat, 2.0 mg/kg): 78 min and 88.2 min
- AUC(0-inf) [7]: 14300 ng·h/mL
- AUC(0-t) [7]: 14300 ng·h/mL
- CL/F [7]: 11.9 mL/min/kg
- MRT inf [7]: 205 min
- MRT last [7]: 205 min
- Tmax [7]: 60 min
- half-life [7]: 115 min
- microsomal CLint [8]: 10 µL/min/mg
- IC50 [1]: 0.288 µM

Structure (SMILES): CC(C)(C)c1ccc(N(C(=O)c2cocn2)C(C(=O)NCC2CCCO2)c2cccnc2)cc1 (configuration not stated)
- CC50 (vero): > 10 µM
- IC50 [1]: 5.15 µM

Structure (SMILES): CC(C)(C)c1ccc(N(C(=O)c2cocn2)C(C(=O)NC2COC2)c2cccnc2)cc1 (configuration not stated)
- CC50 (vero): > 10 µM
- IC50 [1]: 4.07 µM

Structure (SMILES): COc1ccc(Cl)cc1OCCNC(=O)c1cc(=O)[nH]c2cccc(OC)c12
- Papp [9]: 109 ×10⁻⁶ cm/s
- IC50 [1]: 0.874 µM

Structure (SMILES): COC(=O)[C@@H]1C[C@@H](NC(=O)C(c2cccnc2)N(C(=O)c2cocn2)c2ccc(C(C)(C)C)cc2)CN1C(=O)OC(C)(C)C (stereo in doubt)
- CC50 (vero): > 10 µM
- IC50 [1]: 6.82 µM

Structure (SMILES): N#CC1(CS(=O)(=O)N2Cc3ccc(Cl)cc3C(C(=O)Nc3cncc4ccccc34)C2)CNC1 (configuration not stated)
- logD [5]: 1.8
- AUC(0-inf) ([2]; rat, 0.5 mg/kg): 101 ng·h/mL and 104 ng·h/mL
- AUC(0-t) ([2]; rat, 0.5 mg/kg): 99.7 ng·h/mL and 102 ng·h/mL
- C0 ([2]; rat, 0.5 mg/kg): 417 ng/mL and 369 ng/mL
- MRT inf ([2]; rat, 0.5 mg/kg): 24.5 min and 22.7 min
- MRT last ([2]; rat, 0.5 mg/kg): 20.7 min and 22.2 min
- Vd ([2]; rat, 0.5 mg/kg): 1.55 L/kg and 1.68 L/kg
- clearance ([2]; rat, 0.5 mg/kg): 68.6 mL/min/kg and 67.4 mL/min/kg
- half-life ([2]; rat, 0.5 mg/kg): 20.8 min and 21.5 min
- IC50 [1]: 0.169 µM

Structure (SMILES): O=C(Nc1cncc2c1CCCC2)C1CCNc2cc(Cl)c(Cl)cc21 (configuration not stated)
- logD [5]: 3.9

Structure (SMILES): O=C(Nc1cncc2ccccc12)C1CN(S(=O)(=O)CC2CNC2)Cc2ccc(Cl)cc21 (configuration not stated)
- fraction unbound [3]: 0.335
- fraction unbound [4]: 0.295
- logD [5]: 0.2
- AUC(0-inf) ([2]; rat, 0.5 mg/kg): 83.4 ng·h/mL and 86.5 ng·h/mL
- AUC(0-t) ([2]; rat, 0.5 mg/kg): 76.9 ng·h/mL and 76.7 ng·h/mL
- C0 ([2]; rat, 0.5 mg/kg): 406 ng/mL and 381 ng/mL
- MRT inf ([2]; rat, 0.5 mg/kg): 67.2 min and 61.8 min
- MRT last ([2]; rat, 0.5 mg/kg): 33.2 min and 32 min
- Vd ([2]; rat, 0.5 mg/kg): 5.86 L/kg and 6.06 L/kg
- clearance ([2]; rat, 0.5 mg/kg): 94.6 mL/min/kg and 91.2 mL/min/kg
- half-life ([2]; rat, 0.5 mg/kg): 91.2 min
- microsomal CLint [8]: 10 µL/min/mg
- Fa ([10]; mdck): 30.7%
- Papp A→B ([10]; mdck): 1.6 ×10⁻⁶ cm/s
- recovery ([10]; mdck): 93%
- Papp A→B ([10]; mdck_mdr1): 0.517 ×10⁻⁶ cm/s and 0.7 ×10⁻⁶ cm/s
- Papp B→A ([10]; mdck_mdr1): 0.896 ×10⁻⁶ cm/s and 0.9 ×10⁻⁶ cm/s
- AC50 [11]: 20.4 µM

Structure (SMILES): O=C(Cc1ccc(Cl)c(Cl)c1)Nc1cncc2cnccc12
- CC50 (a549): > 9.99 µM
- IC50 [1]: 1.85 µM

Structure (SMILES): CS(=O)(=O)c1ccc2cncc(NC(=O)C3CCNc4cc(Cl)c(Cl)cc43)c2c1 (configuration not stated)
- logD [5]: 3.1
- AUC(0-inf) ([2]; rat, 0.5 mg/kg): 285 ng·h/mL and 378 ng·h/mL and 178 ng·h/mL
- AUC(0-t) ([2]; rat, 0.5 mg/kg): 282 ng·h/mL and 377 ng·h/mL and 175 ng·h/mL
- C0 ([2]; rat, 0.5 mg/kg): 741 ng/mL and 1320 ng/mL and 725 ng/mL
- MRT inf ([2]; rat, 0.5 mg/kg): 28.6 min and 41 min and 22.8 min
- MRT last ([2]; rat, 0.5 mg/kg): 38 min and 27.8 min and 21 min
- Vd ([2]; rat, 0.5 mg/kg): 1.2 L/kg and 0.645 L/kg and 1.15 L/kg
- clearance ([2]; rat, 0.5 mg/kg): 29.2 mL/min/kg and 22.4 mL/min/kg and 50.2 mL/min/kg
- half-life ([2]; rat, 0.5 mg/kg): 38.9 min and 29.9 min and 21.2 min
- CC50 (a549): > 9.99 µM
- IC50 [1]: 0.526 µM

Structure (SMILES): COc1ccc2cncc(NC(=O)[C@]3(OC)CCOc4ccc(Cl)cc43)c2c1 (stereo in doubt)
- logD [5]: 3.4
- IC50 [1]: 0.0612 µM and 0.0765 µM and 0.0853 µM

Structure (SMILES): O=C(Cc1cc(F)cc(Cl)c1)Nc1cncc2ccccc12
- CC50 (a549): > 9.99 µM
- IC50 [1]: 0.368 µM and 0.398 µM

Structure (SMILES): CC1CN(S(C)(=O)=O)CCC1NC(=O)CC1(C(=O)Nc2cncc3ccccc23)CCOc2ccc(Cl)cc21 (configuration not stated)
- CC50 (a549): > 9.99 µM
- IC50 [1]: 2.79 µM

Structure (SMILES): COc1ccc2cncc(NC(=O)C3(OC)CCOc4ccc(Cl)cc43)c2c1 (configuration not stated)
- logD [5]: 3.4
- AUC(0-inf) ([2]; mouse, 0.5 mg/kg): 98.2 ng·h/mL and 108 ng·h/mL
- C0 ([2]; mouse, 0.5 mg/kg): 246 ng/mL and 252 ng/mL
- MRT inf ([2]; mouse, 0.5 mg/kg): 41.5 min and 34.1 min
- MRT last ([2]; mouse, 0.5 mg/kg): 30.8 min and 28.1 min
- Vd ([2]; mouse, 0.5 mg/kg): 3.52 L/kg and 2.67 L/kg
- clearance ([2]; mouse, 0.5 mg/kg): 84.9 mL/min/kg and 77.9 mL/min/kg
- half-life ([2]; mouse, 0.5 mg/kg): 35.6 min and 29 min
- IC50 [1]: 0.116 µM and 0.12 µM

Structure (SMILES): O=C(Nc1cncc2ccccc12)C1CCN(Cc2ccn[nH]2)c2ccc(Cl)cc21 (configuration not stated)
- CC50 (a549): > 9.99 µM
- IC50 [1]: 0.803 µM

Structure (SMILES): CN(C)C(=O)CNCC1(C(=O)Nc2cncc3ccccc23)CCOc2ccc(Cl)cc21 (configuration not stated)
- logD [5]: 2.7
- IC50 [1]: 0.603 µM
